Calls of active or inactive are those of the source. The rule behind the calls is not given here.
Tested on: CCRIS mutagenicity, Ames/micronucleus/aberration tests
Assay: CCRIS mutagenicity studies
[1] = Test System: AMES SALMONELLA TYPHIMURIUM, Strain/Indicator: TA100, Metabolic Activation: RAT, LIVER, S-9, PHENOBARBITAL, Method: STANDARD PLATE
[2] = Test System: AMES SALMONELLA TYPHIMURIUM, Strain/Indicator: TA100, Metabolic Activation: NONE, Method: STANDARD PLATE
[3] = Test System: AMES SALMONELLA TYPHIMURIUM, Strain/Indicator: TA1537, Metabolic Activation: NONE, Method: STANDARD PLATE
[4] = Test System: AMES SALMONELLA TYPHIMURIUM, Strain/Indicator: TA98, Metabolic Activation: NONE, Method: STANDARD PLATE

## O=P(OC(CCl)CCl)(OC(CCl)CCl)OC(CCl)CCl
Test System: AMES SALMONELLA TYPHIMURIUM, Strain/Indicator: TA97, Metabolic Activation: HAMSTER, LIVER, S-9, AROCLOR 1254 (10%), Method: PREINCUBATION
  mutagenic call: active; positive
Test System: AMES SALMONELLA TYPHIMURIUM, Strain/Indicator: TA97, Metabolic Activation: NONE, Method: PREINCUBATION
  mutagenic call: inactive; negative
Test System: AMES SALMONELLA TYPHIMURIUM, Strain/Indicator: TA97, Metabolic Activation: RAT, LIVER, S-9, AROCLOR 1254 (10%), Method: PREINCUBATION
  mutagenic call: inactive; negative
Test System: AMES SALMONELLA TYPHIMURIUM, Strain/Indicator: TA98, Metabolic Activation: HAMSTER, LIVER, S-9, AROCLOR 1254 (10%), Method: PREINCUBATION
  mutagenic call: inactive; negative
Test System: AMES SALMONELLA TYPHIMURIUM, Strain/Indicator: TA98, Metabolic Activation: NONE, Method: PREINCUBATION
  mutagenic call: inactive; negative
Test System: AMES SALMONELLA TYPHIMURIUM, Strain/Indicator: TA98, Metabolic Activation: RAT, LIVER, S-9, AROCLOR 1254 (10%), Method: PREINCUBATION
  mutagenic call: inactive; negative
Test System: AMES SALMONELLA TYPHIMURIUM, Strain/Indicator: TA100, Metabolic Activation: HAMSTER, LIVER, S-9, AROCLOR 1254 (10%), Method: PREINCUBATION
  mutagenic call: active; positive
Test System: AMES SALMONELLA TYPHIMURIUM, Strain/Indicator: TA100, Metabolic Activation: NONE, Method: PREINCUBATION
  mutagenic call: inactive; negative
Test System: AMES SALMONELLA TYPHIMURIUM, Strain/Indicator: TA100, Metabolic Activation: RAT, LIVER, HEPATOCYTES, PHENOBARBITAL, Method: PREINCUBATION
  mutagenic call: inactive; negative
Test System: AMES SALMONELLA TYPHIMURIUM, Strain/Indicator: TA100, Metabolic Activation: RAT, LIVER, HEPATOCYTES, Method: PREINCUBATION
  mutagenic call: active; positive
Test System: AMES SALMONELLA TYPHIMURIUM, Strain/Indicator: TA100, Metabolic Activation: RAT, LIVER, MICROSOMES, PHENOBARBITAL, Method: STANDARD PLATE
  mutagenic call: active; positive
Test System: AMES SALMONELLA TYPHIMURIUM, Strain/Indicator: TA100, Metabolic Activation: RAT, LIVER, S-9, AROCLOR 1254 (10%), Method: PREINCUBATION
  mutagenic call: inactive; negative
[1]
  mutagenic call: active; positive
Test System: AMES SALMONELLA TYPHIMURIUM, Strain/Indicator: TA100, Metabolic Activation: RAT, LIVER, S-9, Method: STANDARD PLATE
  mutagenic call: inactive; negative
Test System: AMES SALMONELLA TYPHIMURIUM, Strain/Indicator: TA1535, Metabolic Activation: HAMSTER, LIVER, S-9, AROCLOR 1254 (10%), Method: PREINCUBATION
  mutagenic call: active; positive
Test System: AMES SALMONELLA TYPHIMURIUM, Strain/Indicator: TA1535, Metabolic Activation: NONE, Method: PREINCUBATION
  mutagenic call: inactive; negative
Test System: AMES SALMONELLA TYPHIMURIUM, Strain/Indicator: TA1535, Metabolic Activation: RAT, LIVER, S-9, AROCLOR 1254 (10%), Method: PREINCUBATION
  mutagenic call: active; positive
Test System: AMES SALMONELLA TYPHIMURIUM, Strain/Indicator: TA1537, Metabolic Activation: HAMSTER, LIVER, S-9, AROCLOR 1254 (10%), Method: PREINCUBATION
  mutagenic call: inactive; negative
Test System: AMES SALMONELLA TYPHIMURIUM, Strain/Indicator: TA1537, Metabolic Activation: NONE, Method: PREINCUBATION
  mutagenic call: inactive; negative
Test System: AMES SALMONELLA TYPHIMURIUM, Strain/Indicator: TA1537, Metabolic Activation: RAT, LIVER, S-9, AROCLOR 1254 (10%), Method: PREINCUBATION
  mutagenic call: inactive; negative
Test System: CHINESE HAMSTER V-79, Strain/Indicator: V-79/6-THIOGUANINE, Metabolic Activation: RAT, LIVER, MICROSOMES, PHENOBARBITAL
  mutagenic call: inactive; negative
Test System: UDS RODENT HEPATOCYTES, Strain/Indicator: THY INCORP (NON-S-PHASE), Metabolic Activation: RAT, LIVER, HEPATOCYTES, PHENOBARBITAL, Method: LIQUID SCINTILLATION COUNTING
  mutagenic call: inactive; negative
Test System: UDS RODENT HEPATOCYTES, Strain/Indicator: THY INCORP (NON-S-PHASE), Metabolic Activation: RAT, LIVER, HEPATOCYTES, Method: LIQUID SCINTILLATION COUNTING
  mutagenic call: inactive; negative

## Oc1ccc2c(O)cccc2c1
Test System: AMES SALMONELLA TYPHIMURIUM, Strain/Indicator: TA102, Metabolic Activation: NONE, Method: PREINCUBATION
  mutagenic call: active; positive
Test System: AMES SALMONELLA TYPHIMURIUM, Strain/Indicator: TA2637, Metabolic Activation: RAT, LIVER, S-9, PHENOBARBITAL AND 5,6-BENZOFLAVONE, Method: PREINCUBATION
  mutagenic call: active; positive

## O=[N+]([O-])c1cc2cccc3c4c(c5cccc1c5c23)CCCC4
Test System: AMES SALMONELLA TYPHIMURIUM, Strain/Indicator: TA98, Metabolic Activation: NONE', Method: STANDARD PLATE
  mutagenic call: active; positive
[2]
  mutagenic call: active; positive

## CCC(=O)Nc1snc2ccc(C)cc12
[2]
  mutagenic call: inactive; negative
Test System: AMES SALMONELLA TYPHIMURIUM, Strain/Indicator: TA100, Metabolic Activation: S-9, Method: STANDARD PLATE
  mutagenic call: inactive; negative
[3]
  mutagenic call: inactive; negative
Test System: AMES SALMONELLA TYPHIMURIUM, Strain/Indicator: TA1537, Metabolic Activation: S-9, Method: STANDARD PLATE
  mutagenic call: inactive; negative

## Cc1cc(N)c(C)c2c1[nH]c1ccccc12
[4]
  mutagenic call: inactive; negative
Test System: AMES SALMONELLA TYPHIMURIUM, Strain/Indicator: TA98, Metabolic Activation: RAT LIVER S-9, AROCLOR 1254, Method: STANDARD PLATE
  mutagenic call: active; positive
[2]
  mutagenic call: inactive; negative
Test System: AMES SALMONELLA TYPHIMURIUM, Strain/Indicator: TA100, Metabolic Activation: RAT LIVER S-9, AROCLOR 1254, Method: STANDARD PLATE
  mutagenic call: inactive; negative

## O=C1c2cccc(O)c2C(=O)c2cccc(O)c21
[4]
  mutagenic call: active; positive
Test System: AMES SALMONELLA TYPHIMURIUM, Strain/Indicator: TA98, Metabolic Activation: RAT, LIVER, S-9, AROCLOR 1254, Method: STANDARD PLATE
  mutagenic call: active; positive
Test System: AMES SALMONELLA TYPHIMURIUM, Strain/Indicator: TA100, Metabolic Activation: RAT, LIVER, S-9, AROCLOR 1254, Method: STANDARD PLATE
  mutagenic call: inactive; negative
Test System: AMES SALMONELLA TYPHIMURIUM, Strain/Indicator: TA1535, Metabolic Activation: NONE, Method: STANDARD PLATE
  mutagenic call: inactive; negative
Test System: AMES SALMONELLA TYPHIMURIUM, Strain/Indicator: TA1535, Metabolic Activation: RAT, LIVER, S-9, AROCLOR 1254, Method: STANDARD PLATE
  mutagenic call: inactive; negative
[3]
  mutagenic call: active; positive
Test System: AMES SALMONELLA TYPHIMURIUM, Strain/Indicator: TA1537, Metabolic Activation: RAT, LIVER, S-9, AROCLOR 1254, Method: STANDARD PLATE
  mutagenic call: active; positive
Test System: AMES SALMONELLA TYPHIMURIUM, Strain/Indicator: TA1537, Metabolic Activation: RAT, LIVER, S-9, Method: PREINCUBATION
  mutagenic call: active; positive
Test System: AMES SALMONELLA TYPHIMURIUM, Strain/Indicator: TA1538, Metabolic Activation: NONE, Method: STANDARD PLATE
  mutagenic call: active; positive
Test System: AMES SALMONELLA TYPHIMURIUM, Strain/Indicator: TA1978, Metabolic Activation: NONE, Method: STANDARD PLATE
  mutagenic call: inactive; negative
Test System: AMES SALMONELLA TYPHIMURIUM, Strain/Indicator: TA1978, Metabolic Activation: RAT, LIVER, S-9, AROCLOR 1254, Method: STANDARD PLATE
  mutagenic call: inactive; negative
Test System: AMES SALMONELLA TYPHIMURIUM, Strain/Indicator: TA2637, Metabolic Activation: RAT, LIVER, S-9, 5,6-BENZOFLAVONE AND/OR SODIUM PHENOBARBITAL, Method: PREINCUBATION
  mutagenic call: active; positive
Test System: AMES SALMONELLA TYPHIMURIUM, Strain/Indicator: TA2637, Metabolic Activation: RAT, LIVER, S-105, 5,6-BENZOFLAVONE AND/OR SODIUM PHENOBARBITAL, Method: PREINCUBATION
  mutagenic call: inactive; negative

## Cc1ccc(Cl)cc1N
End Point: IN VITRO CHROMOSOMAL ABERRATIONS, Test System: CHINESE HAMSTER OVARY CELLS, Metabolic Activation: NONE
  mutagenic call: inactive; negative
End Point: IN VITRO CHROMOSOMAL ABERRATIONS, Test System: CHINESE HAMSTER OVARY CELLS, Metabolic Activation: RAT, LIVER, S-9, AROCLOR 1254
  mutagenic call: inactive; negative
Test System: UDS RODENT HEPATOCYTES, Strain/Indicator: THY INCORP (NON-S-PHASE), Metabolic Activation: NONE, Method: AUTORADIOGRAPHY
  mutagenic call: inactive; negative

## CCCCOS(=O)(=O)OCCCC
End Point: In vitro micronucleus, Test System: Chinese Hamster Ovary (CHO-WBL) cells, Metabolic Activation: None
  mutagenic call: active; positive (p<0.01)

## NC(CO)C(=O)NNCc1ccc(O)c(O)c1O (stereo not given)
[2]
  mutagenic call: active; positive
[1]
  mutagenic call: active; positive
Test System: UDS RAT HEPATOCYTES, Strain/Indicator: THY INCORP, Metabolic Activation: NONE, Method: AUTORADIOGRAPHY
  mutagenic call: inactive; negative

From PubChem BioAssay AID1259407 (Chemical Carcinogenesis Research Information System (CCRIS), 2018)
